Test results: patent US9738848B2, “Polyfunctional lubricant composition” (priority 2013, dated 2017)

Tests used:
[1] = Hydrolyzability test (acid value after storage with water); format: physicochemical; conditions: 1 mass percent water, 60° C.
Method: 1 Mass percent of water was added to phosphorus compounds and the mixture was stored in a thermostat at 60° C. The compounds were evaluated for hydrolyzability by measuring an acid value at each number of days elapsed.

[2] = tested on: Larval medaka (Oryzias latipes); conditions: cited from earlier work
[3] = tested on: Rainbow trout; conditions: cited from earlier work

Compound	Hydrolyzability (acid value over days elapsed) [1]	Larval medaka (Oryzias latipes) acute toxicity 96h-LC50 [2]	Rainbow trout acute toxicity 96h-LC50 [3]
O=P(Oc1ccccc1)(Oc1ccccc1)Oc1ccccc1 [Triphenyl phosphate]	high hydrolyzability	1.3 µg/mL	–
Tricresyl phosphate	–	0.84 µg/mL	–
Triisopropyl phenyl phosphate	–	>100 µg/mL	1.6 µg/mL
